Data on 19 molecules can be found in US8859848B2, “Phloretin glycosyltransferases, polynucleotides encoding these and methods of use” (The New Zealand Institute for Plant and Food Research …, priority 2007, dated 2014).

“Also recorded” adds a separate entry of the source. Read-outs that look alike come from different tables or passages of the source.

Common to all, as to type: biochemical
Data set [1] concerns the target T1, MpUGT88A1 (Malus domestica, UniProt B3TKC8).
T1 construct: The entire coding region of the MpUGT88A1 cDNA was cloned in frame into the expression vector pET30a(+); made in house; host or cells: E. coli BL21-Codon-Plus-RIL
T1 sequence (B3TKC8 1-483): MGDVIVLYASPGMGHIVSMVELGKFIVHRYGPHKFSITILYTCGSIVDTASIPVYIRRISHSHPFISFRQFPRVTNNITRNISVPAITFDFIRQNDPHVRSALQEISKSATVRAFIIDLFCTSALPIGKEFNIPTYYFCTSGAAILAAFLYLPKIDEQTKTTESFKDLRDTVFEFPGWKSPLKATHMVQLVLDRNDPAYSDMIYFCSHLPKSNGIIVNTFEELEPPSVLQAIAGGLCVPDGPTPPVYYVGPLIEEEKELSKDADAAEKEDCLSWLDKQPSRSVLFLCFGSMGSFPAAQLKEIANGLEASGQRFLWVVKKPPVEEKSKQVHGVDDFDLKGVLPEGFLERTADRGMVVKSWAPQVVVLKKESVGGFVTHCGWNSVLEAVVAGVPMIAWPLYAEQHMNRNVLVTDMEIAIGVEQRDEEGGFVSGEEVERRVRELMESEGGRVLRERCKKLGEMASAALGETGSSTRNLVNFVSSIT
The following applies: 2 μM phloretin; for inhibition of enzyme activity by divalent cations: 25 mM. How it is done: (§1) UGT activity assays were performed in triplicate in 50 μl reactions using ˜1-2 μg of recombinant protein purified on His-Trap and G200 Superdex columns. […] Reactions were performed at 30° C. for 30 min and terminated by addition of 10 μL of 2 M HCl. The reaction mixtures were extracted twice with 100 μL of ethyl acetate and 20 μl of the organic phase were combined with 1 ml of non-aqueous scintillation fluid and analysed by liquid scintillation counting (Tri-Carb 2900TR, PerkinElmer, Boston, Mass., USA). Boiled enzyme and pET30a(+) vector controls were run in parallel with all enzyme reactions.
(§2) The effect on UGT activity of different pH (5-10), temperature (15-50° C.) and ionic strength of monovalent (Na^+, 0-100 mM; K^+, 0-10 mM) and divalent ions ([…] or Mn^2+, 0-25 mM) was determined as described above using 2 μM phloretin.

Data set [2] has as its target T1, MpUGT88A1. Kind of data set: UGT activity assay with [3H]-UDP-glucose, recombinant MpUGT88A1. The following applies: [3H]-UDP-glucose as sugar donor; 2 mM substrate; 30° C., 30 min. How it is done:
as §1, with “reactions. […]” for “reactions.”
Fifteen substrates (caffeic acid, catechin, chlorogenic acid, 2-coumaric acid, 3-coumaric acid, 4-coumaric acid, cyanidin, 3-(3,4 dihydroxyphenyl) propionic acid, epicatechin, 3-hydroxybenzoic acid, naringenin, phloretin, protocatechuic acid, quercetin and rutin) that are natural constituents of apple fruit or commonly available phenolic compounds were screened for activity.

The target of data set [3] is T1, MpUGT88A1. The following applies: 10 μM phloretin, 250 μM UDP-sugar, 16 h.
The nature of data set [4]: Phloretin glycosyl transferase activity assay of recombinant Md—138221. The following applies: recombinant protein from E. coli. How it is done: as §1
A short description of data set [5]: Effect of pH and temperature on UGT activity of MpUGT88A1 towards phloretin. The following applies: 2 μM phloretin. As for the experimental part:
as §1, §2

Take `[Mn+2]` [Mn^2+]: on MpUGT88A1 [1], the “inhibition of enzyme activity by divalent cations” value is “not inhibited”.
As for `O=C(O)CCc1ccc(O)c(O)c1` [3-(3,4 dihydroxyphenyl) propionic acid], on MpUGT88A1 [2], the “utilised by MpUGT88A1 as an acceptor (substrate screen)” value (shortened to “utilised by MpUGT88A1 as an acceptor”) was “only phloretin was utilised”.
Regarding catechin, at MpUGT88A1 [2], the “utilised by MpUGT88A1 as an acceptor” value was “only phloretin was utilised”.
For `O=C(O)c1cccc(O)c1` [3-hydroxybenzoic acid], at MpUGT88A1 [2], the “utilised by MpUGT88A1 as an acceptor” value was “only phloretin was utilised”.
Turning to `[Mg+2]` [Mg^2+], on MpUGT88A1 [1], the “inhibition of enzyme activity by divalent cations” value is reported as “not inhibited”.
Turning to `O=C(O)/C=C/c1ccc(O)c(O)c1` [caffeic acid], the “utilised by MpUGT88A1 as an acceptor” value on MpUGT88A1 [2] is listed as “only phloretin was utilised”.
For the molecule `O=C(O)/C=C/c1cccc(O)c1` [3-coumaric acid], the “utilised by MpUGT88A1 as an acceptor” value on MpUGT88A1 [2] was “only phloretin was utilised”.
Regarding `O=C1C[C@@H](c2ccc(O)cc2)Oc2cc(O)cc(O)c21` [naringenin], at MpUGT88A1 [2], the “utilised by MpUGT88A1 as an acceptor” value is listed as “only phloretin was utilised; also recorded: not utilised as substrates”.
Regarding `O=C(CCc1ccc(O)cc1)c1c(O)cc(O)cc1O` [phloretin], the “utilised by MpUGT88A1 as an acceptor” value on MpUGT88A1 [2] was “only phloretin was utilised”.
On the same count and under the same terms, then `O=c1c(O)c(-c2ccc(O)c(O)c2)oc2cc(O)cc(O)c12` [quercetin], with “only phloretin was utilised; also recorded: not utilised as substrates”.
Take `[Na+]` [Na^+]: the “inhibition of enzyme activity by monovalent cation” value against MpUGT88A1 [1] (100 mM) is given as “not inhibited”.
Take `O=c1ccn([C@@H]2O[C@H](COP(=O)(O)OP(=O)(O)O[C@H]3OC[C@@H](O)[C@H](O)[C@H]3O)[C@@H](O)[C@H]2O)c(=O)[nH]1` [UDP-xylose]: the “glycosylated product formation with phloretin and activated sugar donor (HPLC/LC-MS)” value at MpUGT88A1 [3] is “a single glycosylated product was formed”.
On to `O=C(O)/C=C/c1ccc(O)cc1` [4-coumaric acid], for which, at MpUGT88A1 [2], the “utilised by MpUGT88A1 as an acceptor” value is “only phloretin was utilised”.
As for `O=C(/C=C/c1ccc(O)c(O)c1)O[C@@H]1C[C@](O)(C(=O)O)C[C@@H](O)[C@H]1O` [chlorogenic acid], at MpUGT88A1 [2], the “utilised by MpUGT88A1 as an acceptor” value was “only phloretin was utilised”.
`[K+]` [K^+]: the “inhibition of enzyme activity by monovalent cation” value against MpUGT88A1 [1] (10 mM) was “not inhibited”.
Consider `O=C(O)/C=C/c1ccccc1O` [2-coumaric acid], for which, on MpUGT88A1 [2], the “utilised by MpUGT88A1 as an acceptor” value is on record as “only phloretin was utilised”.
Regarding `O=C(O)c1ccc(O)c(O)c1` [protocatechuic acid], at MpUGT88A1 [2], the “utilised by MpUGT88A1 as an acceptor” value is “only phloretin was utilised”.

B1: Md—138221: variant phloretin glycosyltransferase polypeptide from Malus x domestica (protein, listed as Malus domestica)
chain: MGDVIVLYAAPGMGHVISMVELGKLILHRYGPHKFSITILYTCGSFFDTPSIPAYIRRISHSHPSISFRQFPRVTNKITQNISGTAIVVDFVRQNDPHVRRALQDISKSAVVRAFIIDLVCTSAMTISKEFDIPTYYFYTSGAAALGAFLYFPKIHEQTTQSFKDLTDTVIEFPGRKSPLKAIHMIEPLLDRDDPAYWDFLSFCSDLPKSKGIIVNTFEELEPPAVLHAIAEGLCVPDGPTSPVYYVGPLIDEEKVSGNDAAAAEEDCLSWLDKQPSRSVVFLCFGSRGSLPAIQLKEIAKALEASGQRFLWVVKKPPVDEKTKQVLGVDDFDLEGVLPEGFLERTKDRGMVVKSWAPQAEVLKKESVGGFVTHCGWNSVLEAVVAGVPMIAWPLYAEQHLNRNVMATDMEIAIAVEQRDEEDGFVSGEELERRVRELMESEEGRVLRERSKKIGEMAMAALGENGSSTRNLVNFVNSLT
As for B1, in data set [4], the “phloretin glycosyltransferase activity relative to that shown for MpUGT88A1” value is reported as “approximately 3%”.

B2: MpUGT88A1: Malus domestica uridine diphosphate glycosyltransferase; recombinant His6-tagged phloretin glycosyltransferase produced in E. coli (protein, listed as Malus domestica)
chain: T1 sequence (B3TKC8 1-483)
modifications: His6 tag
notes: Malus domestica uridine diphosphate glycosyltransferase; recombinant His6-tagged phloretin glycosyltransferase produced in E. coli
Consider B2, for which the “pH range of significant activity” value in data set [5] (pH range 5-10) is reported as 7-8. In addition, in data set [5] (pH range 5-10, 50 mM Tris-HCl), the “pH of maximum activity” value amounted to 7.7. In data set [5] (relative to maximum), the “activity at pH 5 and 10” value is recorded as “less than 5%”; the “activity at pH 6 and 9” value is 20%. Besides, in data set [5] (standard conditions), the “temperature of maximum activity” value is 25 °C and the “temperature range of activity” value is 15-50 °C.
